Assay results as given in US10800789B2, “Antiviral compounds” (Gilead Pharmasset LLC, priority 2012, dated 2020).
Where two headings read alike, the source gives them in different places.

What was measured:
[1] = tested on: NS5A chimeric genotype 1b Con1 replicon with genotype 3a S52 strain NS5A gene; test: Replicon assay, genotype 3a NS5A chimera; assay type: cell-based, HCV; details: Hepatitis C virus
[2] = tested on: NS5A chimeric genotype 1b Con1 replicon with genotype 4a ED43 strain NS5A gene; test: Replicon assay, genotype 4a NS5A chimera; assay type: cell-based, HCV; details: Hepatitis C virus
[3] = tested on: stable HCV 1b RLuc replicon cells (dicistronic genotype 1b Con1 replicon); test: Renilla luciferase HCV replicon reporter assay, genotype 1b; assay type: cell-based; details: Hepatitis C virus, 72 h, stable 1b Con1 RLuc replicon cells, 72 hours; read-out: 1b
Outline: (§1)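 Cells carrying the stable or transiently transfected (Huh-Lunet) dicistronic RLuc replicons received 3-fold serial compound dilutions from 10 mM DMSO stocks. After 72 h, cells were lysed and Renilla luciferase read. DMSO served as the no-inhibition control and ITMN-191 above 100×EC50 as the positive control; EC50 by non-linear regression.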

[4] = tested on: NS5A chimeric genotype 2a JFH-1 replicon with genotype 2b MD2b-1 strain NS5A gene (M31 present); test: Replicon assay, genotype 2b NS5A chimera; assay type: cell-based, HCV; details: Hepatitis C virus
Outline: as §1

[5] = tested on: stable HCV 2a JFH-1 Rluc replicon cells (L31 present in NS5A); test: Renilla luciferase HCV replicon reporter assay, genotype 2a JFH-1; assay type: cell-based; details: Hepatitis C virus
Outline: as §1

[6] = tested on: stable HCV 1a RLuc replicon cells (dicistronic genotype 1a H77 replicon); test: Renilla luciferase HCV replicon reporter assay, genotype 1a; assay type: cell-based; details: Hepatitis C virus, 72 h, stable 1a H77 RLuc replicon cells
Outline: as §1

[7] = tested on: NS5A chimeric genotype 2a JFH-1 replicon with genotype 2a J6 strain NS5A gene (M31 present); test: Replicon assay, genotype 2a J6 NS5A chimera; assay type: cell-based, HCV; details: Hepatitis C virus
Outline: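 72 h compound exposure (3-fold dilutions from 10 mM DMSO stocks) of replicon cells: stable dicistronic RLuc 1a H77, 1b Con1, 2a JFH-1 (NS5A L31); J6-NS5A chimera in JFH-1 (M31), transient in Huh-Lunet or stable. Renilla luciferase read-out, non-linear regression → EC50. DMSO negative control.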

[8] = read-out: 3a (s) (nM), genotype 3a NS5A chimeric replicon, stable replicon cells (s)
[9] = read-out: 3a (s), (s), activity range
[10] = read-out: 4a (s) (nM), genotype 4a NS5A chimeric replicon, stable replicon cells (s)
[11] = read-out: 4a (s), (s), activity range
[12] = 2BS, read-out: 2b (s), stably replicating replicon cells (s), activity range
[13] = read-out: 2b (s) (nM), genotype 2b MD2b-1 NS5A chimeric replicon (M31), stably replicating replicon cells (s)
[14] = read-out: 2a JFH (nM), genotype 2a JFH-1 replicon (L31 in NS5A), stable cells
[15] = read-out: 2a JFH, stable 2a JFH-1 Rluc replicon cells, L31 in NS5A, activity range
[16] = read-out: 2a J6 (t) (nM), genotype 2a J6 NS5A chimeric replicon (M31), transiently transfected (t) into Huh-Lunet cells
[17] = read-out: 2a J6 (t), transiently transfected (t) into Huh-Lunet cells, activity range

SMILES | EC50 [1, 8] [nM] | EC50 [1, 9] [nM] | EC50 [2, 10] [nM] | EC50 [2, 11] [nM] | EC50 [3] [nM] | EC50 [4, 12] [nM] | EC50 [4, 13] [nM] | EC50 [5, 14] [nM] | EC50 [5, 15] [nM] | EC50 [6] [nM] | EC50 ([6]; activity range) [nM] | EC50 [7, 16] [nM] | EC50 [7, 17] [nM]
CC[C@H]1C[C@@H](c2nc3ccc4cc5c(cc4c3[nH]2)OCc2cc(-c3cnc([C@@H]4CC[C@H](C)N4C(=O)[C@@H](NC(=O)OC)C(C)C)[nH]3)ccc2-5)N(C(=O)[C@@H](NC(=O)OC)[C@@H](C)OC)C1 [GU] | 0.152 | 0.1 to 0.999 | 0.026 | < 0.1 | 0.022 | 0.1 to 0.999 | 0.728 | 0.014 | < 0.1 | 0.014 | < 0.1 | 0.075 | < 0.1
CC[C@H]1C[C@@H](c2ncc(-c3ccc4c(c3)COc3cc5c(ccc6nc([C@@H]7CC[C@H](C)N7C(=O)[C@@H](NC(=O)OC)C(C)C)[nH]c65)cc3-4)[nH]2)N(C(=O)[C@@H](NC(=O)OC)C(C)C)C1 [GW] | 0.127 | 0.1 to 0.999 | 0.01 | < 0.1 | 0.015 | 1 to 44 | 2.41 | 0.018 | < 0.1 | 0.017 | < 0.1 | 0.771 | 0.1 to 0.999
CC[C@H]1C[C@@H](c2ncc(-c3ccc4c(c3)COc3cc5c(ccc6nc([C@@H]7CC[C@H](C)N7C(=O)[C@@H](NC(=O)OC)C(C)C)[nH]c65)cc3-4)[nH]2)N(C(=O)[C@@H](NC(=O)OC)[C@@H](C)OC)C1 [GX] | 0.106 | 0.1 to 0.999 | 0.01 | < 0.1 | 0.016 | 1 to 44 | 1.18 | 0.013 | < 0.1 | 0.016 | < 0.1 | 0.135 | 0.1 to 0.999
COC(=O)N[C@H](C(=O)N1[C@@H](C)CC[C@H]1c1nc2ccc3cc4c(cc3c2[nH]1)OCc1cc(-c2cnc([C@@H]3CC[C@H](C)N3C(=O)[C@@H](NC(=O)OC)[C@@H](C)O)[nH]2)ccc1-4)C(C)C [GY] | 0.048 | < 0.1 | 0.015 | < 0.1 | 0.032 | 0.1 to 0.999 | 0.311 | 0.013 | < 0.1 | 0.023 | < 0.1 | 0.06 | < 0.1
COC(=O)N[C@@H](CO)C(=O)N1[C@@H](C)CC[C@H]1c1nc2ccc3cc4c(cc3c2[nH]1)OCc1cc(-c2cnc([C@@H]3CC[C@H](C)N3C(=O)[C@@H](NC(=O)OC)C(C)C)[nH]2)ccc1-4 [GZ] | 0.158 | 0.1 to 0.999 | 0.031 | < 0.1 | 0.045 | 1 to 44 | 1.15 | 0.019 | < 0.1 | 0.042 | < 0.1 | 0.534 | 0.1 to 0.999
CCC[C@H](NC(=O)OC)C(=O)N1[C@@H](C)CC[C@H]1c1ncc(-c2ccc3c(c2)COc2cc4c(ccc5nc([C@@H]6CC[C@H](C)N6C(=O)[C@H](CCC)NC(=O)OC)[nH]c54)cc2-3)[nH]1 [HA] | 0.132 | 0.1 to 0.999 | 0.028 | < 0.1 | 0.019 | 1 to 44 | 5.42 | 0.033 | < 0.1 | 0.018 | < 0.1 | 4.12 | 1 to 44
[2H]C([2H])([2H])C([2H])(C([2H])([2H])[2H])[C@]([2H])(NC(=O)OC)C(=O)N1[C@@H](C)CC[C@H]1c1ncc(-c2ccc3c(c2)COc2cc4c(ccc5nc([C@@H]6CC[C@H](C)N6C(=O)[C@@]([2H])(NC(=O)OC)C([2H])(C([2H])([2H])[2H])C([2H])([2H])[2H])[nH]c54)cc2-3)[nH]1 [HB] | 0.038 | < 0.1 | 0.011 | < 0.1 | 0.012 | 0.1 to 0.999 | 0.49 | 0.011 | < 0.1 | 0.012 | < 0.1 | 0.155 | 0.1 to 0.999
COC(=O)N[C@@H](C)C(=O)N1[C@@H](C)CC[C@H]1c1nc2ccc3cc4c(cc3c2[nH]1)OCc1cc(-c2cnc([C@@H]3CC[C@H](C)N3C(=O)[C@@H](NC(=O)OC)C(C)C)[nH]2)ccc1-4 [HC] | 0.105 | 0.1 to 0.999 | 0.014 | < 0.1 | 0.016 | 1 to 44 | 1.82 | 0.014 | < 0.1 | 0.012 | < 0.1 | 1.43 | 1 to 44
COC(=O)N[C@H](C(=O)N1[C@@H](C)CC[C@H]1c1ncc(-c2ccc3c(c2)COc2cc4c(ccc5nc([C@@H]6CC[C@H](C)N6C(=O)[C@@H](NC(=O)OC)C6CC6)[nH]c54)cc2-3)[nH]1)C(C)C [HD] | 0.102 | 0.1 to 0.999 | 0.016 | < 0.1 | 0.017 | 1 to 44 | 1.9 | 0.017 | < 0.1 | 0.015 | < 0.1 | 1.39 | 1 to 44
COC(=O)N[C@H](C(=O)N1[C@@H](C)CC[C@H]1c1ncc(-c2ccc3c(c2)COc2cc4c(ccc5nc([C@@H]6CC[C@H](C)N6C(=O)[C@@H](NC(=O)OC)C6CCCCC6)[nH]c54)cc2-3)[nH]1)C(C)C [HE] | 0.074 | < 0.1 | 0.014 | < 0.1 | 0.02 | 1 to 44 | 1.59 | 0.017 | < 0.1 | 0.011 | < 0.1 | 0.677 | 0.1 to 0.999
